{"source": "PubChem BioAssay AID2060899", "about": "(Molecular Pharmacology Branch, DTP, NCI, 2025)", "system": "565726-208-R1-J5-PDC complex spheroids, growth inhibition", "test": "Anticancer human tumor 565726-208-R1-J5-PDC patient-derived pancreatic adenocarcinoma cell line growth inhibition [RAS]", "settings": "for IC50: curve of first compound; for viability, T/C: stronger effect = lower value", "outline": "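Agents were tested in combination matrices in half-log decrements from a top concentration at or near clinical Cmax (10 microM if undetermined). Targets were multi-cell spheroids of tumour lines plus HUVEC and MSC stromal cells.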"}
{"compound": "CC(=O)OC12COC1CC(O)C1(C)C(=O)C(O)C3=C(C)C(OC(=O)C(O)C(NC(=O)OC(C)(C)C)c4ccccc4)CC(O)(C(OC(=O)c4ccccc4)C21)C3(C)C", "note": "(configuration not stated) + CCn1c(-c2cc(N3CCN(C)CC3)cnc2C(C)OC)c2c3cc(ccc31)-c1csc(n1)CC(NC(=O)C1CC1C)C(=O)N1CCCC(N1)C(=O)OCC(C)(C)C2;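 note: spheroids exposed to compounds for seven days before readout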;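 for viability, T/C: 100% = DMSO vehicle control viability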", "values": [{"measurement": "IC50", "setting": "second compound 0.000949 µM", "result": "< 31.6", "unit": "nM"}, {"measurement": "IC50", "setting": "second compound 0.003 µM", "result": "< 31.6", "unit": "nM"}, {"measurement": "IC50", "setting": "second compound 0.00949 µM", "result": "< 31.6", "unit": "nM"}, {"measurement": "IC50", "setting": "second compound 0.03 µM", "result": "< 31.6", "unit": "nM"}, {"measurement": "IC50", "setting": "second compound 0.0949 µM", "result": "< 31.6", "unit": "nM"}, {"measurement": "IC50", "setting": "second compound 0.3 µM", "result": "< 31.6", "unit": "nM"}, {"measurement": "viability, T/C", "setting": "second compound 0.000949 µM, first compound 0.0316 µM", "result": 20.3, "unit": "%"}, {"measurement": "viability, T/C", "setting": "second compound 0.000949 µM, first compound 0.1 µM", "result": 17, "unit": "%"}, {"measurement": "viability, T/C", "setting": "second compound 0.000949 µM, first compound 0.316 µM", "result": 19.2, "unit": "%"}, {"measurement": "viability, T/C", "setting": "second compound 0.000949 µM, first compound 1 µM", "result": 17.7, "unit": "%"}, {"measurement": "viability, T/C", "setting": "second compound 0.000949 µM, first compound 3.16 µM", "result": 20.2, "unit": "%"}, {"measurement": "viability, T/C", "setting": "second compound 0.000949 µM, first compound 10 µM", "result": 20.8, "unit": "%"}, {"measurement": "viability, T/C", "setting": "second compound 0.003 µM, first compound 0.0316 µM", "result": 20.4, "unit": "%"}, {"measurement": "viability, T/C", "setting": "second compound 0.003 µM, first compound 0.1 µM", "result": 17.7, "unit": "%"}, {"measurement": "viability, T/C", "setting": "second compound 0.003 µM, first compound 0.316 µM", "result": 17.2, "unit": "%"}, {"measurement": "viability, T/C", "setting": "second compound 0.003 µM, first compound 1 µM", "result": 15.5, "unit": "%"}, {"measurement": "viability, T/C", "setting": "second compound 0.003 µM, first compound 3.16 µM", "result": 18.7, "unit": "%"}, {"measurement": "viability, T/C", "setting": "second compound 0.003 µM, first compound 10 µM", "result": 18.4, "unit": "%"}, {"measurement": "viability, T/C", "setting": "second compound 0.00949 µM, first compound 0.0316 µM", "result": 17.9, "unit": "%"}, {"measurement": "viability, T/C", "setting": "second compound 0.00949 µM, first compound 0.1 µM", "result": 17.1, "unit": "%"}, {"measurement": "viability, T/C", "setting": "second compound 0.00949 µM, first compound 0.316 µM", "result": 14.7, "unit": "%"}, {"measurement": "viability, T/C", "setting": "second compound 0.00949 µM, first compound 1 µM", "result": 16, "unit": "%"}, {"measurement": "viability, T/C", "setting": "second compound 0.00949 µM, first compound 3.16 µM", "result": 17.6, "unit": "%"}, {"measurement": "viability, T/C", "setting": "second compound 0.00949 µM, first compound 10 µM", "result": 15.2, "unit": "%"}, {"measurement": "viability, T/C", "setting": "second compound 0.03 µM, first compound 0.0316 µM", "result": 14.5, "unit": "%"}, {"measurement": "viability, T/C", "setting": "second compound 0.03 µM, first compound 0.1 µM", "result": 13.7, "unit": "%"}, {"measurement": "viability, T/C", "setting": "second compound 0.03 µM, first compound 0.316 µM", "result": 11.5, "unit": "%"}, {"measurement": "viability, T/C", "setting": "second compound 0.03 µM, first compound 1 µM", "result": 14.5, "unit": "%"}, {"measurement": "viability, T/C", "setting": "second compound 0.03 µM, first compound 3.16 µM", "result": 13.7, "unit": "%"}, {"measurement": "viability, T/C", "setting": "second compound 0.03 µM, first compound 10 µM", "result": 13.6, "unit": "%"}, {"measurement": "viability, T/C", "setting": "second compound 0.0949 µM, first compound 0.0316 µM", "result": 11.7, "unit": "%"}, {"measurement": "viability, T/C", "setting": "second compound 0.0949 µM, first compound 0.1 µM", "result": 13, "unit": "%"}, {"measurement": "viability, T/C", "setting": "second compound 0.0949 µM, first compound 0.316 µM", "result": 14.6, "unit": "%"}, {"measurement": "viability, T/C", "setting": "second compound 0.0949 µM, first compound 1 µM", "result": 12.5, "unit": "%"}, {"measurement": "viability, T/C", "setting": "second compound 0.0949 µM, first compound 3.16 µM", "result": 14.1, "unit": "%"}, {"measurement": "viability, T/C", "setting": "second compound 0.0949 µM, first compound 10 µM", "result": 11.3, "unit": "%"}, {"measurement": "viability, T/C", "setting": "second compound 0.3 µM, first compound 0.0316 µM", "result": 10.4, "unit": "%"}, {"measurement": "viability, T/C", "setting": "second compound 0.3 µM, first compound 0.1 µM", "result": 10.5, "unit": "%"}, {"measurement": "viability, T/C", "setting": "second compound 0.3 µM, first compound 0.316 µM", "result": 11.4, "unit": "%"}, {"measurement": "viability, T/C", "setting": "second compound 0.3 µM, first compound 1 µM", "result": 11.3, "unit": "%"}, {"measurement": "viability, T/C", "setting": "second compound 0.3 µM, first compound 3.16 µM", "result": 12, "unit": "%"}, {"measurement": "viability, T/C", "setting": "second compound 0.3 µM, first compound 10 µM", "result": 10.4, "unit": "%"}]}
